This is an account of results in patent publication US10654816B2, “Compounds and compositions for treating conditions associated with NLRP activity” (NOVARTIS INFLAMMASOME RESEARCH, INC., priority 2017, dated 2020).

For orientation: IC50 means the concentration at which inhibition is half-maximal.

The first assay relates to IL-1β production in PMA-differentiated THP-1 cells. In words: IL-1β production in PMA-differentiated THP-1 cells stimulated with gramicidin (hTHP-1 assay, HTRF readout; Procedures 1-3). Format: cell-based, human. The settings on record: Homo sapiens, THP-1, hTHP-1 assay containing 2% fetal bovine serum; average; class symbols; read-out: hTHP-1 IC50 (Average IC50 of compounds in hTHP-1 assay). The method, boiled down: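 PMA-differentiated (20 ng/ml, 16-18 h) THP-1 cells in RPMI with 2% FBS, 50,000 cells/well, preincubated 1 h with compound (final 0.0017-100 μM, 0.37% DMSO), then stimulated with 5 μM gramicidin for 2 h. IL-1β in cell-free supernatant measured by HTRF (620/668 nm).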
For `COc1cc(CN(C)C)ccc1S(N)(=O)=NC(=O)Nc1c2c(cc3c1CCC3)CCC2` (stereo not shown) [Example 272, 4-((Dimethylamino)methyl)-N′-((1,2,3,5,6,7-hexahydro-s-indacen-4-yl)carbamoyl)-2-methoxybenzenesulfonimidamide], the IC50 lay within 200 to 1000 nM. `CC(C)c1ccc(S(N)(=O)=NC(=O)Nc2c3c(cc4c2CCC4)CCC3)cn1` (stereo not shown) [Example 288, N′-((1,2,3,5,6,7-hexahydro-s-indacen-4-yl)carbamoyl)-6-isopropylpyridine-3-sulfonimidamide]: the IC50 fell in the range of 1000 to 5000 nM. Regarding `CC(C)(O)c1cc(F)c(S(N)(=O)=NC(=O)Nc2c3c(cc4c2CC4)CCC3)s1` (stereo not shown) [Example 281, 3-fluoro-5-(2-hydroxypropan-2-yl)-N′-((2,4,5,6-tetrahydro-1H-cyclobuta[f]inden-3-yl)carbamoyl)thiophene-2-sulfonimidamide], the concentration for half-maximal inhibition (IC50) lay within 8 to 40 nM. With `CC(C)c1cc(C#N)cc(C(C)C)c1NC(=O)N=S(N)(=O)c1sc(C(C)(C)O)cc1F` (stereo not shown) [Example 65, N′-((4-cyano-2,6-diisopropylphenyl)carbaoyl)-3-fluoro-5-(2-hydroxypropan-2-yl)thiophene-2-sulfonimidamide], the IC50 was in the range of 40 to 200 nM. Take `C=CCN(C)Cc1ccc(S(N)(=O)=NC(=O)Nc2c3c(cc4c2CCC4)CCC3)cc1` (stereo not shown) [Example 238, 4-((Allyl(methyl)amino)methyl)-N′-(1,2,3,5,6,7-hexahydro-s-indacen-4-ylcarbamoyl)benzenesulfonimidamide]: the IC50 was 1000 to 5000 nM. As for `CC(C)(O)c1csc(S(N)(=O)=NC(=O)Nc2c3c(cc4c2CC4)CCC3)n1` (stereo not shown) [Example 262, 4-(2-Hydroxypropan-2-yl)-N′-((2,4,5,6-tetrahydro-1H-cyclobuta[f]inden-3-yl)carbamoyl)thiazole-2-sulfonimidamide], the IC50 lay in the range of 8 to 40 nM. For `CC(C)c1cc(F)cc(C(C)C)c1NC(=O)N=S(N)(=O)c1ccc2c(c1)CCO2` (stereo not shown) [Example 211, N′-((4-fluoro-2,6-diisopropylphenyl)carbamoyl)-2,3-dihydrobenzofuran-5-sulfonimidamide], the IC50 fell in the range of 5000 to 30000 nM.

On to `CC(C)(O)c1ccc(S(N)(=O)=NC(=O)Nc2c3c(c(F)c4c2CCC4)CCC3)c(F)c1` (stereo not shown) [Example 47, 2-fluoro-N′-(8-fluoro-1,2,3,5,6,7-hexahydro-s-indacen-4-ylcarbamoyl)-4-(2-hydroxypropan-2-yl)benzenesulfonimidamide], for which the IC50 is 200 to 1000 nM. Turning to `NS(=O)(=NC(=O)Nc1c2c(cc3c1CCC3)CCC2)c1ccc(CN2CCOCC2)cc1` (stereo not shown) [Example 234, N′-(1,2,3,5,6,7-hexahydro-s-indacen-4-ylcarbamoyl)-4-(morpholino-methyl)benzenesulfonimidamide], the IC50 fell in the range of 1000 to 5000 nM. For `CC(C)c1cc(F)cc(C(C)C)c1NC(=O)N=S(N)(=O)c1ccc(S(C)(=O)=O)cc1` (single isomer, unassigned) [Example 145, (R)- or (S)-N′-(4-fluoro-2,6-diisopropylphenylcarbamoyl)-4-(methylsulfonyl)-benzenesulfonimidamide], the half-maximal inhibitory concentration (IC50) was in the range of 5000 to 30000 nM. `CC(C)c1cc(F)cc(C(C)C)c1NC(=O)N=S(N)(=O)c1cccc2c(N(C)C)cccc12` (stereo not shown) [Example 431, 1-{amino[5-(dimethylamino)naphthalen-1-yl]oxo-λ^6-sulfanylidene}-3-[4-fluoro-2,6-bis(propan-2-yl)phenyl]urea]: the IC50 is 5000 to 30000 nM. On the same count and under the same terms, the result for `CC(C)(O)c1ncc(S(N)(=O)=NC(=O)Nc2c3c(cc4c2CCC4)CCC3)s1` (stereo not shown) [Example 4, N′-(1,2,3,5,6,7-hexahydro-s-indacen-4-ylcarbamoyl)-2-(2-hydroxvpropan-2-yl)thiazole-5-sulfonimidamide] reads […]; that for `Cn1ncc2cc(S(N)(=O)=NC(=O)Nc3c4c(cc5c3CCC5)CCC4)ccc21` (single isomer, unassigned) [Example 397, (R) or (S)-N′-((1,2,3,5,6,7-hexahydro-s-indacen-4-yl)carbamoyl)-1-methyl-1H-indazole-5-sulfonimidamide], 1000 to 5000 nM.

Staying with this assay, now noted: Homo sapiens, THP-1, hTHP-1 assay containing 2% fetal bovine serum; average; given as bound; read-out: hTHP-1 IC50 (Average IC50 of compounds in hTHP-1 assay).
Turning to `Cc1nn(C)cc1S(N)(=O)=NC(=O)Nc1c(C(C)C)cc(F)cc1C(C)C` (stereo not shown) [Example 209, N′-((4-fluoro-2,6-diisopropylphenyl)carbamoyl)-1,3-dimethyl-1H-pyrazole-4-sulfonimidamide], the IC50 is > 30000 nM. Same read-out and setting: the result for `CC(C)c1cc(F)cc(C(C)C)c1NC(=O)N=S(N)(=O)c1ccc(CN(C)C)cc1` (single isomer, unassigned) [Example 133, (R)- or (S)-4-((dimethylamino)methyl)-N′-(4-fluoro-2,6-diisopropylphenyl-carbamoyl)benzenesulfonimidamide] reads > 30000 nM; that for `CC(C)c1cc(C#N)cc(C(C)C)c1NC(=O)N=S(N)(=O)c1ccc(C(C)(C)O)c(CO)c1` (single isomer, unassigned) [Example 189, (R)- or (S)-N′-((4-cyano-2,6-diisopropylphoxyproyl)-3-(hydroxymethyl)-4-(2-hydroxypropan-2-yl)benzenesulfonimidamide], > 30000 nM. For the compound `CNS(=O)(=NC(=O)Nc1c2c(cc3c1CCC3)CCC2)c1ccc(CN(C)C)cc1` (single isomer, unassigned) [Example 383, (R) or (S)-4-((dimethylamino)methyl)-N′-((1,2,3,5,6,7-hexahydro-s-indacen-4-yl)carbamoyl)-N-methylbenzene-sulfonimidamide], the IC50 was > 30000 nM. For the compound `COCCN(C)Cc1ccc(S(N)(=O)=NC(=O)Nc2c3c(cc4c2CCC4)CCC3)cc1` (single isomer, unassigned) [Example 389, (S) or (R)-N′-((1,2,3,5,6,7-hexahydro-s-indacen-4-yl)carbamoyl)-4-(((2-methoxyethyl)(meth-yl)amino)methyl)benzene-sulfonimidamide], the IC50 is > 30000 nM.

The same assay, now with this note: Homo sapiens, THP-1, hTHP-1 assay containing 2% fetal bovine serum; average; numeric bound printed without unit; read-out: hTHP-1 IC50 (Average IC50 of compounds in hTHP-1 assay).
With `CC(C)c1cc(OC(F)F)cc(C2CC2)c1NC(=O)N=S(N)(=O)c1ccc(C(C)(C)O)cc1F` (single isomer, unassigned) [Example 167, (R)- or (S)-N′-((2-cyclopropyl-4-(difluoromethoxy)-6-isopropylphenyl)carbamoyl)-2-fluoro-4-(2-hydroxypropan-2-yl)benzenesulfonimidamide], the IC50 is > 11200 nM.
